{"source": "paper PMC2989642", "about": "(The European journal of neuroscience, 2010)", "key": {"[1]": {"biological_target": "α3β2 receptors (in the α5β4 KO) (Mus musculus, UniProt Q8R4G9+Q9ERK7)", "sequence (Q8R4G9 26-499)": "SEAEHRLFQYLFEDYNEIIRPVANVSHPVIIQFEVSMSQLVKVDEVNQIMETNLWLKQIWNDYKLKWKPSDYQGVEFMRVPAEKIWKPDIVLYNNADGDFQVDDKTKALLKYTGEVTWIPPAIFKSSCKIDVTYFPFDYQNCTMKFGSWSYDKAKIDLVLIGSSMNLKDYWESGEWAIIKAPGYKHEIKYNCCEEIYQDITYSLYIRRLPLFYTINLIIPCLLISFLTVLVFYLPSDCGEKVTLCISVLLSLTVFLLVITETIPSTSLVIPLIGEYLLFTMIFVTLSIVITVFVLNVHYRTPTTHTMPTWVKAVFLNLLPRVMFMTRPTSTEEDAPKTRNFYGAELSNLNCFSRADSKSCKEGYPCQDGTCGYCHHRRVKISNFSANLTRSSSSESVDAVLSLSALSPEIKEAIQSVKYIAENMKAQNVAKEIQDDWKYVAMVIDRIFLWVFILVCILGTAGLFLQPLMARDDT", "sequence (Q9ERK7 26-501)": "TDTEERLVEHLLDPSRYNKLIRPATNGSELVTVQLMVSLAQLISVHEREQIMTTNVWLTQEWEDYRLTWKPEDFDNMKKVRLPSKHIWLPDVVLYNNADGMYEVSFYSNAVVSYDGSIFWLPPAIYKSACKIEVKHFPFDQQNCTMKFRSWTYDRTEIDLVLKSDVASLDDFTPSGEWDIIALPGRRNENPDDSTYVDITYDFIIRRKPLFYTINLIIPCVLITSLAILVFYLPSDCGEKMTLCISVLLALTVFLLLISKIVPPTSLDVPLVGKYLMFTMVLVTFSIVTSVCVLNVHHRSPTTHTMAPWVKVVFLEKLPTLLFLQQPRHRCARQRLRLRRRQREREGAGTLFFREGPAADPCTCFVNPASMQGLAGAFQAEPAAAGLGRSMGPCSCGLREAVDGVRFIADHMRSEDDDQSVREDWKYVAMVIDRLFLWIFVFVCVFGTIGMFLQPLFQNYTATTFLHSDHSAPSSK", "assay": "cell-based", "format": "cell-based"}, "[2]": {"biological_target": "α3β4 receptors (in the α5β2 KO) (Mus musculus, UniProt Q8R493+Q8R4G9)", "sequence (Q8R4G9 26-499)": "as the sequence (Q8R4G9 26-499) above", "sequence (Q8R493 21-495)": "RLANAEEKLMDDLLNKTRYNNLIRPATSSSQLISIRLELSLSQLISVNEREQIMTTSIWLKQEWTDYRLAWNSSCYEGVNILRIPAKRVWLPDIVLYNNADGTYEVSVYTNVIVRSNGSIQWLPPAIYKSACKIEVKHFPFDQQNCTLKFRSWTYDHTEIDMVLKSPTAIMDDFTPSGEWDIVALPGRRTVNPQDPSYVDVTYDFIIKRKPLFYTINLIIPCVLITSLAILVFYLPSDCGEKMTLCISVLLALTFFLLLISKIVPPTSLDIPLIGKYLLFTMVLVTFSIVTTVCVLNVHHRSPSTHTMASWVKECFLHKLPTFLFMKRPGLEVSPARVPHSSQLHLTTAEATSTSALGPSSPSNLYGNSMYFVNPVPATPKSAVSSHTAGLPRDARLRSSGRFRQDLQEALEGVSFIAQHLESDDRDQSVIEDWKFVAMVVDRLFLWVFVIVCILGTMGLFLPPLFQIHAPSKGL", "assay": "cell-based"}}, "data": [{"substance": "α-conotoxin AuIB", "values": [{"measurement": "effect on currents induced by 300 μM ACh", "setting": "[1]", "result": "did not affect"}, {"measurement": "recovery of the inhibition", "setting": "[2]", "result": "Fast and full recovery"}]}]}
